From patent publication US8101180B2, “Anti-IGF-IR and/or anti-insulin/IGF-I hybrid receptors antibodies and uses thereof” (Pierre Fabre Medicament, priority 2002, dated 2012) come the findings set out here.

The subject of one test is A549 tumor. The experiment in a line: A549 non-small cell lung tumor subcutaneous xenograft. In kind it is in vivo, nude mice. Conditions: RDV, SDV […], 4 i.p. injections 7 days apart; conjugates […] agent and 250 μg/dose antibody. Here is the method: Navelbine is a chemotherapy compound indicated in non-small cell cancer of the lung and in metastatic cancer of the breast. […] For this study, 5·10^6 A549 cells were grafted subcutaneously on the right flank of the mouse. Five days after the cell graft, the tumors are measurable and the treatments with MAb and/or navelbine are commenced. The MAb dose is always 250 μg/dose/mouse, twice per week, intra-peritoneally. Concerning navelbine, it will be administered at the maximum dose tolerated by the mouse or 10 mg/kg, intraperitoneally. For this treatment three injections will be carried out at intervals of 7 days. During the coadministrations, the two products are mixed before injection.
For this study, nude mice are grafted s.c. with 5·10^6 A549 cells. Five days after the cell graft, the tumors are measured and a homogeneous batch of mice in terms of tumor volume is formed. Starting from this batch, groups of 6 mice are generated at random.
To do this, 5·10^6 A549 cells were implanted subcutaneously in nude mice. Five days after this implantation, the tumors were measured and groups of 6 mice were formed. […] This granule is essential to the establishment of any E2-dependent human tumor in this animal species.
These conjugates are administered according to the same modes as the groups given the chemotherapy compounds alone; • the animals of the control batch are given injections of PBS, administered according to the same frequency.
The weight of the mice and the tumor volume are evaluated twice a week. The tumor volumes are calculated according to the formula: ½ (length·width·height).

Another test has as its system P388 murine leukemia. Put plainly: P388 murine leukemia grafted intravenously, survival (T/C). It counts as in vivo, CDF1 mice. Here is the method: The compound is administered intraperitoneally in a single dose on day 1. The protocol for this test is described by Kruczynski A. et al., Cancer Chemotherapy and Pharmacology, 1998, volume 41, pages 437 to 447.
Conventionally, the in vivo activity of cytotoxic compounds is expressed by the T/C at a dose expressed in mg per kg. The T/C corresponds to the ratio, multiplied by 100, of the median of the survival time of the treated animals to the median of the survival time of the control animals.
The protocol for this test is described by Kruczynski A. et al., Cancer Chemotherapy and Pharmacology, 1998, volume 41, pages 437 to 447.
To do this, a total of 10^6 P388 murine leukemia cells were implanted i.v. in CDF1 mice on day 0. After randomization of the animals in cages for treatment with each alkaloid and control cages, the compounds were administered i.p. on day 1.
Conventionally, the in vivo activity of compounds is expressed by the increase in survival time. The survival time is expressed by the T/C at a dose expressed in mg per kg (mg/kg). The T/C corresponds to the ratio, multiplied by 100, of the median of the survival time of the treated animals to the median of the survival time of the control animals. In agreement with the standard criteria of the NCl, a T/C of 120 corresponds to a minimum level for concluding that activity is present.
A T/C below 75 expresses toxicity of the test compound at the dose administered.

The test system of test [1] is MCF-7 cells. Put plainly: Apoptosis of MCF-7 cells (Annexin V-FITC/DAPI flow cytometry). It counts as cell-based, human. Conditions: doxorubicin 2 μg/ml, 24 hours, IGF-I 50 ng/ml. Here is the method: As indicated above, IGF-IR is capable of conferring protection against apoptosis when it is overexpressed on the surface of cells. […] In these experiments, the MCF-7 cells are inoculated at 2·10^4/cm^2 in Petri dishes and cultured for 24 h in RPMI without phenol red supplemented with 10% of fetal calf serum (FCS). The cells are then washed twice with PBS and put back into culture in medium with 0% FCS. They are allowed an adaptation time of 10 minutes at 37° C. before the addition of the antibodies at 10 μg/ml. After an extra 10 minutes at 37° C., recombinant IGF-I (Sigma) is added to the culture medium to a final concentration of 50 ng/ml. The cells are left at 37° C. again for one hour in order to allow the attachment of the antibodies and of the IGF-I. Finally, the doxorubicin (Sigma) is added to the culture medium at 2 μg/ml and the cells are incubated for 24 hours at 37° C.
The experiments have likewise been conducted with navelbine at a concentration of 10 μg/ml.
The analysis of the cell viability is carried out by flow cytometric analysis after labeling with the annexin V-FITC (20 minutes, 4° C.) and DAPI (2 μg/ml). The percentage of dead cells considered is the labeled population Annexin+/DAPI+. The antibody 5C2 is used as a control isotype.
In general terms: A flow cytometer gives signals particle by particle.

In test [2] the test system is MCF-7 cells. Put plainly: Cell cycle of MCF-7 cells with IGF1. It counts as cell-based, human. The method, then: The inhibition of the cell growth observed in vitro on the line MCF-7 should be manifested by an effect on the cell cycle. In order to reply to this question, 4·10^5 cells are inoculated into 6-well plates. […] After incubation for 24 hours, the cells are recovered for the study of the cell cycle.

Setting [3] is: dose 0.63 mg/kg i.p. single dose day 1, T/C = median survival treated/control ×100, below 75 = toxicity.
[4] abbreviates: dose 1.25 mg/kg i.p. single dose day 1.
[5] abbreviates: dose 5 mg/kg i.p. single dose day 1.
[6] abbreviates: dose 10 mg/kg i.p. single dose day 1.
Setting [7] is: after addition of IGF1, 24 hours ([…] in the absence of IGF1).

With `CCC1CC2CN(CCc3c([nH]c4ccccc34)[C@@](C(=O)OC)(c3cc4c(cc3OC)N(C)[C@H]3C(O)(C(=O)OC)[C@H](OC(C)=O)[C@]5(CC)C=CCN6CC[C@]43[C@@H]65)C2)C1` (stereo partly drawn) [4′-R-deoxyvinblastine, 4′-R deoxyvinblastine], the “A549 tumor growth, deoxyvinblastines alone or coupled to h7C10” value with A549 tumor is “evolve in the same manner as the control group”. Moreover, the T/C in the test with P388 murine leukemia (setting [3]) was determined as 100; with P388 murine leukemia (setting [4]), 100; in the test with P388 murine leukemia (setting [5]), 143; in the test on P388 murine leukemia (setting [6]), 200; in the test on P388 murine leukemia (dose 20 mg/kg i.p. single dose day 1), 214; in the test on P388 murine leukemia (dose 40 mg/kg i.p. single dose day 1), 43.
For the compound `CC[C@@H]1C[C@@H]2CN(CCc3c([nH]c4ccccc34)[C@@](C(=O)OC)(c3cc4c(cc3OC)N(C)[C@H]3[C@@](O)(C(=O)OC)[C@H](OC(C)=O)[C@]5(CC)C=CCN6CC[C@]43[C@@H]65)C2)C1` [4′-S-deoxyvinblastine, 4′-S deoxyvinblastine], the “A549 tumor growth, deoxyvinblastines alone or coupled to h7C10” value in the test with A549 tumor was “evolve in the same manner as the control group”. Further, the T/C is reported as 114 in the test on P388 murine leukemia (setting [3]), 143 with P388 murine leukemia (setting [4]), 100 with P388 murine leukemia (setting [5]) and 57 in the test on P388 murine leukemia (setting [6]).
On to `COc1cccc2c1C(=O)c1c(O)c3c(c(O)c1C2=O)C[C@@](O)(C(=O)CO)C[C@@H]3O[C@H]1C[C@H](N)[C@H](O)[C@H](C)O1` [doxorubicin, reference compound], for which, in the test on MCF-7 cells [1], the “apoptosis, percentage of MCF-7 cells” value is 8%.
`CC[C@]1(O)C[C@@H]2CN(CCc3c([nH]c4ccccc34)[C@@](C(=O)OC)(c3cc4c(cc3OC)N(C)[C@H]3[C@@](O)(C(=O)OC)[C@H](OC(C)=O)[C@]5(CC)C=CCN6CC[C@]43[C@@H]65)C2)C1` [vinblastine, reference compound]: the T/C was 114 in the test with P388 murine leukemia (setting [3]), 114 in the test with P388 murine leukemia (setting [4]), 143 in the test on P388 murine leukemia (setting [5]) and 57 in the test on P388 murine leukemia (setting [6]).
`CC[C@]1(O)C[C@H]2CN(CCc3c([nH]c4ccccc34)[C@@](C(=O)OC)(c3cc4c(cc3OC)N(C=O)[C@H]3[C@@](O)(C(=O)OC)[C@H](OC(C)=O)[C@]5(CC)C=CCN6CC[C@]43[C@@H]65)C2)C1` [vincristine, reference compound]: the T/C in the test on P388 murine leukemia (setting [3]) is 114; with P388 murine leukemia (setting [4]), 143; with P388 murine leukemia (setting [5]), 100; with P388 murine leukemia (setting [6]), 57.
As for “IGF1: insulin-like growth factor 1, native ligand of IGF-IR”, the “proportion of MCF-7 cells in G2/M phase” value in the test on MCF-7 cells [2] (after addition of IGF1, 24 hours (4% in the absence of IGF1)) was 12.7%. In addition, in the test with MCF-7 cells [2] (setting [7]), the “proportion of MCF-7 cells in G0/G1 phase” value came to 56.3% and the “proportion of MCF-7 cells in S phase” value was found to be 31%.
